Data as given in ChEMBL document CHEMBL3596137, “N-Substituted pyrazole-3-carboxamides as inhibitors of human 15-lipoxygenase” (Bioorg Med Chem Lett, 2015).
pIC50: −log10 of the molar value. Blank lines part the entries; values can stand above or below the molecule they belong to. The source made the active and inactive calls. The calls are words filed in the database; no cut-off is given here.

Columns and labels:
[1] = target: T1, Polyunsaturated fatty acid lipoxygenase ALOX15 (Homo sapiens, UniProt P16050); assay: Inhibition of human 15-LOX-1 using arachidonic acid as substrate by cell based assay
T1 sequence (P16050 whole entry): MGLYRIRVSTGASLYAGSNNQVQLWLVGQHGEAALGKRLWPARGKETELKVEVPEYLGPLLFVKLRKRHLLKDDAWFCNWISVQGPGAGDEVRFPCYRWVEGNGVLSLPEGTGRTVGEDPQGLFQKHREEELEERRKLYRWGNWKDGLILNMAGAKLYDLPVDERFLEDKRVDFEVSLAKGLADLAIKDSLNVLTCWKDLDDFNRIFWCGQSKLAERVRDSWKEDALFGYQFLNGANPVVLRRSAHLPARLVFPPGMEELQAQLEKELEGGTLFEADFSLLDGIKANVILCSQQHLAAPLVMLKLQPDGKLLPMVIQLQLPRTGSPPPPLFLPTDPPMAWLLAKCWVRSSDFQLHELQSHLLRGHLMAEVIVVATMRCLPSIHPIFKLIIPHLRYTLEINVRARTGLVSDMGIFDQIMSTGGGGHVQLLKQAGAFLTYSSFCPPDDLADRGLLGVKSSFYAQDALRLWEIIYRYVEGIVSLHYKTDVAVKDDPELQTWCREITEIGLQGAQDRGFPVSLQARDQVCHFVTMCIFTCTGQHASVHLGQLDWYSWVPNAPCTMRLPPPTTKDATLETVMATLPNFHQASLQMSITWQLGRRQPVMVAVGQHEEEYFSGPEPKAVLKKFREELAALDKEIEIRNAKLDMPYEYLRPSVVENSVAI

[2] = target: T1, Polyunsaturated fatty acid lipoxygenase ALOX15; assay: Inhibition of human 15-LOX-1 using arachidonic acid as substrate
[3] = target: Prostaglandin G/H synthase 1 (Homo sapiens) (UniProt P23219); assay: Inhibition of COX1 (unknown origin) using arachidonic acid as substrate at 10 uM
Chain of Prostaglandin G/H synthase 1 (Homo sapiens) (P23219 whole entry): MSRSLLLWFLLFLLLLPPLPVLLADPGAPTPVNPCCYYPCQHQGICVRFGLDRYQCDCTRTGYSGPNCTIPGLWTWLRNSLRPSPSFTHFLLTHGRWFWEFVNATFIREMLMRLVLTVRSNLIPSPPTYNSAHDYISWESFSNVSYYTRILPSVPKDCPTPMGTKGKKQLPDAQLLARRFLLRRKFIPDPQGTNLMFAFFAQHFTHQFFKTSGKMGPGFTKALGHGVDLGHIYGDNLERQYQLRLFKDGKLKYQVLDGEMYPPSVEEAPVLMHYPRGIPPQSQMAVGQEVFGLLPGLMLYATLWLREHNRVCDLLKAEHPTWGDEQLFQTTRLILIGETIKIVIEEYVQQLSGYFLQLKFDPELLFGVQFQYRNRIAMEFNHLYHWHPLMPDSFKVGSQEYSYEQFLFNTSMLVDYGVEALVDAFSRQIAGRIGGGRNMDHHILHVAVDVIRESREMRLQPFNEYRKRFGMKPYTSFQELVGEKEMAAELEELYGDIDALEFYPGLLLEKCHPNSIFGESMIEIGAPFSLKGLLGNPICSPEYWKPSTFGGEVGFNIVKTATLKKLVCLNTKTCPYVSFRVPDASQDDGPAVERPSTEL

[4] = target: T2, Prostaglandin G/H synthase 2 (Homo sapiens) (UniProt P35354); assay: Inhibition of COX2 (unknown origin) using arachidonic acid as substrate at 10 uM
T2 sequence (whole entry): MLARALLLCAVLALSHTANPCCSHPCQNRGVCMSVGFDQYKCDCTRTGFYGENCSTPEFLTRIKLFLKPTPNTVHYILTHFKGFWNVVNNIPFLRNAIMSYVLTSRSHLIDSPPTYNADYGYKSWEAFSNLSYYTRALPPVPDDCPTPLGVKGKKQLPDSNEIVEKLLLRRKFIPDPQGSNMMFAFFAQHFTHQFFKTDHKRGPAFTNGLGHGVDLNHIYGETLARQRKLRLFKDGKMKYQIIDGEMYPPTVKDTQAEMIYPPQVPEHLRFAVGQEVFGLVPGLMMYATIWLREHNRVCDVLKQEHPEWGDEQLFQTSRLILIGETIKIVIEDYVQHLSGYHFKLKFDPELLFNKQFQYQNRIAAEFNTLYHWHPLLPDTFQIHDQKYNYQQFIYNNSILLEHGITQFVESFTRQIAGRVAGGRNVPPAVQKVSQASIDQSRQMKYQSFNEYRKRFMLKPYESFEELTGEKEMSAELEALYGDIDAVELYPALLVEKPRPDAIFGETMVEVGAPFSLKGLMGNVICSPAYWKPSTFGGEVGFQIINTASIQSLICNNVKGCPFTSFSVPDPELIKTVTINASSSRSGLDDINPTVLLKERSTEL

[5] = target: T3, Polyunsaturated fatty acid 5-lipoxygenase (Homo sapiens) (UniProt P09917); assay: Inhibition of 5-LOX (unknown origin) using arachidonic acid as substrate at 10 uM by cell based assay
T3 sequence (whole entry): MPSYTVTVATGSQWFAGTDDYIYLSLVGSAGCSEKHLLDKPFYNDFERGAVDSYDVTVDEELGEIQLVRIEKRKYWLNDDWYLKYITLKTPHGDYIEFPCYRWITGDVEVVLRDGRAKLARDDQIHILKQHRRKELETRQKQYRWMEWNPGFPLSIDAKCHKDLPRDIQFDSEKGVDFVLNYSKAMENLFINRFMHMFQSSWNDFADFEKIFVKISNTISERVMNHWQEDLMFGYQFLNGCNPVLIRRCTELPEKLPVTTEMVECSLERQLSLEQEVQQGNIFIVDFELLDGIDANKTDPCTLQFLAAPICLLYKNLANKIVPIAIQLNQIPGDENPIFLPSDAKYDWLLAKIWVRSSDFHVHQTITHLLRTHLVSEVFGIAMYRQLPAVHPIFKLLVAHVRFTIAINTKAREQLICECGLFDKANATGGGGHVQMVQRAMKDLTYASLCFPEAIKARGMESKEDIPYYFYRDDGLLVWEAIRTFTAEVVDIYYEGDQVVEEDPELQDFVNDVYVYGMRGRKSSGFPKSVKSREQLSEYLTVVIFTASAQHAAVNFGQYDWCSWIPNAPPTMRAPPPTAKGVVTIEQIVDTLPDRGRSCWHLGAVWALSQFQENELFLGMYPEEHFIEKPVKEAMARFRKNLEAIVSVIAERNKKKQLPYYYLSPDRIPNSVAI

[6] = target: T3, Polyunsaturated fatty acid 5-lipoxygenase (Homo sapiens); assay: Inhibition of 5-LOX (unknown origin) using arachidonic acid as substrate at 10 uM
[7] = target: T4, Polyunsaturated fatty acid lipoxygenase ALOX12 (Homo sapiens) (UniProt P18054); assay: Inhibition of 12-LOX (unknown origin) using arachidonic acid as substrate at 10 uM
T4 sequence (whole entry): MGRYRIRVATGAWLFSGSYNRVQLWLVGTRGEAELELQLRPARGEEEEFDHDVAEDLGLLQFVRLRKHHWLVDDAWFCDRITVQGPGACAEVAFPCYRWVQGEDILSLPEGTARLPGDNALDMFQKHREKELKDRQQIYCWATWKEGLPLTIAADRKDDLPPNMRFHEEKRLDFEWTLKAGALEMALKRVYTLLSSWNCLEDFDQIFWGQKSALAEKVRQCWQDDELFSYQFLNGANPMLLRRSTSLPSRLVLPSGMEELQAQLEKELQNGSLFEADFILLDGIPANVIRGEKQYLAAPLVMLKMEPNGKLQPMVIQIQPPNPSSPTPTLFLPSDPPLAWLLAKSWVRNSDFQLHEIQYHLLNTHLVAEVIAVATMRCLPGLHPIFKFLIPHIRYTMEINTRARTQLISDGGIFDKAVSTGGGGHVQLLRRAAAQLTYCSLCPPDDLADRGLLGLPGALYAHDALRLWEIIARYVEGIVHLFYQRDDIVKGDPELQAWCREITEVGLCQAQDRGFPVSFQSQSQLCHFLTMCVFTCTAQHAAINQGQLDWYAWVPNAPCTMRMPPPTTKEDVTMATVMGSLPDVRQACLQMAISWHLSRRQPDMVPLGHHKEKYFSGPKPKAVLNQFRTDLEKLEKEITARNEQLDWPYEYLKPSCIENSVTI

IC50 [1]: Not Active
SMILES: Cn1cc(Cl)c(C(=O)Nc2ccc(F)cc2Cl)n1

pIC50 ([1]; read-out: IC50): 5.97
pIC50 ([2]; read-out: IC50): 5.71
SMILES: O=C(Nc1ccc(F)cc1Cl)c1ccn(S(=O)(=O)c2cccc(C(F)(F)F)c2)n1

IC50 [1]: Not Active
SMILES: CN(C)S(=O)(=O)n1ccc(C(=O)Nc2ccc(F)cc2Cl)n1

inhibition [3]: 11%
inhibition [4]: inactive
inhibition [5]: 16%
inhibition [6]: 8%
inhibition [7]: 18%
SMILES: O=C(Nc1ccccc1Cl)c1ccn(C(=O)c2cccc(Cl)c2)n1

IC50 [1]: Not Active
IC50 [2]: Not Active
SMILES: CCCCCCNC(=O)n1cc(CCCC)c(C(=O)Nc2ccc(F)cc2Cl)n1

IC50 [1]: Not Active
SMILES: O=C(Nc1ccc(F)cc1Cl)c1ccn(C(=O)Cc2ccccc2)n1
